According to the NIST ThermoML archive (doi:10.1021/acs.jced.8b01075):

Assay: molar heat capacity at saturation pressure
Details: Crystal, Small (less than 1 g) adiabatic calorimetry

[Al+3].[Al+3].[O-2].[O-2].[O-2] [aluminum oxide (Al2O3)]
Details | molar heat capacity [J/K/mol]
81.94 K | 7.415
84.02 K | 7.956
87.02 K | 8.82
90.02 K | 9.678
93.01 K | 10.58
96 K | 11.53
98.99 K | 12.53
101.97 K | 13.54
104.94 K | 14.57
107.93 K | 15.61
110.92 K | 16.7
113.92 K | 17.8
116.92 K | 18.91
119.93 K | 20.06
122.94 K | 21.18
125.95 K | 22.36
128.99 K | 23.51
132.02 K | 24.71
135.04 K | 25.91
138.07 K | 27.14
141.09 K | 28.39
144.13 K | 29.63
147.16 K | 30.83
150.2 K | 32.05
153.23 K | 33.28
156.27 K | 34.49
159.31 K | 35.7
162.35 K | 36.9
165.39 K | 38.13
168.44 K | 39.32
171.48 K | 40.52
174.52 K | 41.67
177.6 K | 42.88
180.64 K | 44.01
183.68 K | 45.17
186.72 K | 46.24
189.76 K | 47.4
192.8 K | 48.56
195.84 K | 49.61
198.88 K | 50.65
201.91 K | 51.8
204.95 K | 52.77
207.97 K | 53.81
211 K | 54.84
214.02 K | 55.88
217.04 K | 56.95
220.05 K | 57.85
223.06 K | 58.88
226.07 K | 59.93
229.07 K | 60.93
232.07 K | 61.8
235.06 K | 62.67
238.05 K | 63.55
241.03 K | 64.4
244.01 K | 65.33
246.98 K | 66.26
249.94 K | 67.1
252.9 K | 67.9
255.85 K | 68.71
258.78 K | 69.49
261.71 K | 70.19
264.63 K | 71.03
267.53 K | 71.84
270.43 K | 72.53

O=C(O)c1ccccc1 [benzoic acid]
Details | molar heat capacity [J/K/mol]
4.54 K | 0.238
4.75 K | 0.256
4.88 K | 0.271
5.02 K | 0.296
5.16 K | 0.31
5.29 K | 0.316
5.42 K | 0.327
5.53 K | 0.343
5.64 K | 0.358
5.75 K | 0.372
5.85 K | 0.388
5.95 K | 0.419
6.07 K | 0.438
6.22 K | 0.468
6.38 K | 0.502
6.53 K | 0.521
6.7 K | 0.571
6.84 K | 0.618
6.99 K | 0.662
7.14 K | 0.7
7.29 K | 0.731
7.43 K | 0.778
7.57 K | 0.823
7.72 K | 0.893
7.86 K | 0.954
8.01 K | 0.978
8.16 K | 1.053
8.31 K | 1.116
8.46 K | 1.163
8.6 K | 1.263
8.76 K | 1.329
8.91 K | 1.384
9.07 K | 1.472
9.22 K | 1.512
9.38 K | 1.58
9.53 K | 1.649
9.69 K | 1.725
9.84 K | 1.858
10 K | 1.902
10.21 K | 2.036
10.49 K | 2.207
10.76 K | 2.354
11.04 K | 2.56
11.32 K | 2.751
11.6 K | 2.956
11.88 K | 3.123
12.17 K | 3.346
12.45 K | 3.529
12.75 K | 3.819
13.03 K | 4.037
13.33 K | 4.28
13.62 K | 4.532
13.91 K | 4.755
14.01 K | 4.933
14.31 K | 5.137
14.6 K | 5.519
14.9 K | 5.794
15.19 K | 6.073
15.49 K | 6.356
15.79 K | 6.616
16.09 K | 6.911
16.39 K | 7.207
16.7 K | 7.541
17 K | 7.836
17.3 K | 8.091
17.6 K | 8.409
17.91 K | 8.786
18.21 K | 9.095
18.52 K | 9.471
18.83 K | 9.71
19.13 K | 10.14
19.44 K | 10.4
19.58 K | 10.55
19.75 K | 10.7
19.89 K | 10.86
20.52 K | 11.49
21.41 K | 12.5
22.31 K | 13.49
23.22 K | 14.56
24.13 K | 15.56
25.05 K | 16.55
25.98 K | 17.58
26.92 K | 18.63
27.86 K | 19.67
28.81 K | 20.7
29.76 K | 21.73
30.71 K | 22.75
31.67 K | 23.72
32.64 K | 24.69
33.6 K | 25.68
34.57 K | 26.57
35.56 K | 27.57
36.53 K | 28.47
37.51 K | 29.44
38.5 K | 30.44
39.89 K | 31.71
40.89 K | 32.53
41.89 K | 33.31
42.89 K | 33.99
43.89 K | 34.84
44.89 K | 35.7
45.89 K | 36.42
46.89 K | 37.22
47.9 K | 38.04
48.9 K | 38.77
49.91 K | 39.47
50.92 K | 40.13
51.94 K | 40.84
52.95 K | 41.56
53.97 K | 42.16
54.98 K | 42.68
56.02 K | 43.44
57.03 K | 44.09
58.06 K | 44.66
59.17 K | 45.31
60.19 K | 45.98
61.22 K | 46.55
62.24 K | 47.19
63.27 K | 47.79
64.3 K | 48.32
65.32 K | 48.9
66.35 K | 49.45
67.38 K | 49.97
68.41 K | 50.43
69.43 K | 50.89
71.27 K | 51.74
73.3 K | 52.71
75.33 K | 53.69
77.36 K | 54.68
78.78 K | 55.18
79.56 K | 55.66
81.07 K | 56.41
83.09 K | 57.46
85.1 K | 58.18
87.11 K | 58.97
89.11 K | 59.73
91.11 K | 60.5
93.12 K | 61.27
95.11 K | 62.07
97.11 K | 62.81
99.11 K | 63.57
101.6 K | 64.59
104.58 K | 65.66
107.58 K | 66.69
110.58 K | 67.85
113.59 K | 69.03
116.61 K | 70.18
119.62 K | 71.3
122.63 K | 72.54
125.65 K | 73.61
128.67 K | 74.78
131.69 K | 75.96
134.72 K | 77.09
137.76 K | 78.23
140.79 K | 79.41
143.83 K | 80.49
146.87 K | 81.68
149.91 K | 82.93
152.95 K | 84.03
156 K | 85.17
159.05 K | 86.37
162.09 K | 87.59
165.18 K | 88.85
168.23 K | 90.02
171.28 K | 91.22
174.33 K | 92.46
177.38 K | 93.64
180.44 K | 94.8
183.49 K | 96.08
186.54 K | 97.26
189.6 K | 98.55
192.66 K | 99.83
195.71 K | 101
198.77 K | 102.3
201.83 K | 103.6
204.89 K | 104.9
208.45 K | 106.6
212.52 K | 108.2
216.67 K | 110.1
220.76 K | 111.7
224.85 K | 113.5
228.95 K | 115.3
237.16 K | 119
241.28 K | 120.8
245.39 K | 122.6
249.52 K | 124.4
253.64 K | 126.3
257.77 K | 128.1
261.9 K | 130
266.04 K | 132
270.19 K | 133.8
274.34 K | 135.7
278.49 K | 137.6
282.77 K | 139.8
286.93 K | 141.6
291.09 K | 143.5
295.26 K | 145.5
299.42 K | 147.4
304.38 K | 149.7
310.53 K | 152.6
317.37 K | 155.7
324.19 K | 158.8
330.99 K | 162
